Results as given in PMC8776894 (Communications Biology, 2022).
“And” between values parts separate entries of the source, which are not always exact repeats. Identical values can stand only once.

Legend:
MCAO/R mice [1] = assay: Transmission electron microscopy of BBB; type: in vivo, mouse
Description: Frontal cortex samples were isolated from mice with stroke and fixed in 2% glutaraldehyde and 4% paraformaldehyde in 0.1 M sodium cacodylate (pH 7.4), treated with 10% gelatin solution in sodium cacodylate buffer, and incubated with 2% osmium tetroxide. Sections were cut using a Leica EM TP ultramicrotome (Leica Microsystems) at 40 nm and placed within grids stained with a 1:1 mix of 3% uranyl acetate and 50% acetone for 30–60 s. Grids were imaged with a JEM 1400 transmission electron microscope (JEOL) at ×1200 for low magnification and ×12,000 for high magnification (unless otherwise noted) using Gatan Microscopy Suite software (Gatan).

MCAO/R mice [2] = assay: Evans blue extravasation, BBB permeability; type: in vivo, mouse; design: EB content in damaged (right) hemisphere (Fig.4): unit not given here; conditions: for EB content in damaged (right) hemisphere (Fig.4): individual animals
Description: Fig. 4 Protective effect of VK on the blood–brain barrier (BBB) in stroke mice. a Experimental design: in addition to the sham group, mice (8–10 weeks, male) were subjected to MCAO for 60 min. Mice were randomized into four groups: sham group, vehicle group, and VK (150 and 300 µg/kg) groups. Mice were administered VK at 0, 4, 22.5, and 46.5 h after MCAO/R and BBB integrity was assessed by Evans blue (EB) and transmission electron microscope (TEM). b Brain samples were stained with EB. c EB content in damaged (right) hemisphere was quantized. d Schematic of BBB. The BBB mainly consists of endothelial cells (EC), pericytes (PC), astrocytes (Ast), neurons, tight junctions (TJs), and the basement membranes (BM). The main components of the BBB are cerebral microvascular ECs joined by TJs, thus restricting exogenous molecules into the brain. e The structure of the BBB was observed by TEM. In the sham group (e1–3), the capillary morphology was regular, the EC and TJ were complete, the thickness of the BM was uniform and continuous around the outside of EC, and the structure of mitochondria (Mt) was clear. […] The marks with different symbols indicate the constituent cells or matrix of the BBB. Scale bars: 2 µm. Data are expressed as the mean ± SD, n = 5. Values were analyzed using one-way analysis of variance (ANOVA) with the Tukey multiple comparisons test.

MCAO/R mice [3] = assay: MRI of cerebral infarction after MCAO/R; type: in vivo, mouse; conditions: VK 300 i.p. at 0, 4, 22.5, 46.5 h, T2-weighted
Description: After MCAO/R, mice were treated with VK ([…], i.p.) at 0, 4, 22.5, and 46.5 h. Mice were deeply anesthetized with 1.5% isoflurane in a mixture of 30% O2 and 69% N2O. The magnetic resonance imaging (MRI) experiments were performed on a horizontal bore 9.4 Tesla scanner operating on a Bruker Avance platform (Bruker 9.4 T Biospec). T2-weighted imaging was used to evaluate the infarct volume. Three mutually perpendicular images were obtained to localize the infarction site. Then, 13–15 T2-weighted axial slices (1 mm thick) covering the entire damage area (field of view = 30 × 30 mm, matrix size = 256 × 256, echo time^3 = 33 ms, repetition time[68] = 3500 ms) were acquired by a spin-echo pulse sequence to delineate anatomical details and calculate qualitative T2 maps[69].

HT22 cells (OGD/R) = assay: Intracellular ROS (DCFH-DA, flow cytometry); type: cell-based, mouse; conditions: 24-h pretreatment with VK
[4] = test system: BV2 microglia cells (OGD/R); assay: BV2 cell viability after OGD/R (CCK8); conditions: VK 0.0735, 0.735, 7.35 µM
[5] = test system: neurons in cortex and hippocampus of MCAO/R mice; assay: Nissl staining; type: in vivo, mouse
Description: Mice were anesthetized at 48 h after MCAO/R. Brain samples (bregma −2.06–1.94 mm) were collected and fixed by 4% paraformaldehyde for 12–18 h. Following sequential dehydration by 10%, 20%, and 30% sucrose, brains were put in frozen section embedding medium (SAKURA Tissue-Tek O.C.T. Compound, Japan) and cut into […] sections at the level of the frontal cortex (bregma: 1.0 to −1.94 mm) using a cryostat microtome (Leica CM1950). The sections were subsequently stained with Nissl staining.

[6] = test system: MCAO/R mice, brain homogenate; assay: Biochemical kits, oxidative stress in brain (SOD, MDA, LPO, glutathione); type: in vivo, mouse; conditions: 48 h
Description: […] The brain was collected, weighed, and placed in a homogenizer for homogenization. Using 0.9% normal saline (NS) as a homogenization medium, a 10% tissue homogenate was prepared, centrifuged at 3500 rpm for 10 min, and the supernatant was taken. Kits for ATP, glutamic acid, glutathione, lactic acid, LPO, MDA, and SOD were purchased from Nanjingjiancheng Bioengineering Institute, and were measured as previously described for specification.

MCAO/R mice [7] = assay: Morris water maze test; type: in vivo, mouse; conditions: for Morris water maze latency to the platform (sheet block Fig.2h): individual animals
Description: To evaluate the spatial learning and memory ability of mice, the Morris water maze was performed after MCAO/R at 11, 12, 13, 14, and 15 days as described previously with minor modifications[66],[67]. […] Three trials were performed per day with the platform present and continuously detected for 4 days. Data from those trials were shown as the latency to locate the hidden platform on each day and were in indirect proportion to spatial learning abilities. A single 60 s probe test was performed on each mouse on the final day of testing. The platform was withdrawn and each mouse was placed at the same starting position in the pool and allowed to swim for 60 s. The investigator then recorded the time spent in the target quadrant, where the platform had previously been located. The latter measurements were interpreted as spatial memory.

[8] = test system: MCAO/R mice, brain homogenate; assay: Biochemical kits, energy metabolism in brain (ATP, lactic acid); type: in vivo, mouse
Description: Mice were sacrificed under ether anesthesia 3 days after stroke. The brain was collected, weighed, and placed in a homogenizer for homogenization. Using 0.9% normal saline (NS) as a homogenization medium, a 10% tissue homogenate was prepared, centrifuged at 3500 rpm for 10 min, and the supernatant was taken. Kits for ATP, glutamic acid, glutathione, lactic acid, LPO, MDA, and SOD were purchased from Nanjingjiancheng Bioengineering Institute, and were measured as previously described for specification.

## Gly-Arg-Pro-Hyp-Gly-Phe-Ser-Pro-Phe-Arg-Ile-Asp [VK, Vespakinin-M]
MCAO/R mice [1]
  BBB integrity, TEM: could maintain BBB integrity
MCAO/R mice [2]; VK 150 µg/kg i.p.
  EB content in damaged (right) hemisphere (Fig.4): 0.6116 and 3.907 and 2.036 and 0.849 and 0.3932
MCAO/R mice [2]; VK 300 µg/kg i.p.
  EB content in damaged (right) hemisphere (Fig.4): 0.754 and 0.4027 and 0.5261 and 1.381 and 3.67
MCAO/R mice [2]; VK 150 and 300 µg/kg
  BBB permeability, EB extravasation: reversed the effect of MCAO-induced on BBB permeability
MCAO/R mice [3]
  area of cerebral infarction, MRI: reduced the area of cerebral infarction
HT22 cells (OGD/R)
  OGD-induced ROS levels: rescue the OGD-induced ROS levels
[4]
  OGD/R-reduced viability of BV2 cells: reversed by VK treatment in a dose-dependent manner
[5]
  neuron morphology, Nissl staining: morphologically intact neurons were broadly seen
[6]
  glutathione in brain, between groups: no obvious difference
[6]; VK 150 and 300 µg/kg
  MDA and LPO content in brain cortex vs vehicle: decreased content of MDA and LPO
  SOD activity in brain cortex vs vehicle: enhanced SOD activity
MCAO/R mice [7]; 11d after MCAO/R, VK 150 µg/kg, 60 s maximum
  Morris water maze latency to the platform (sheet block Fig.2h): 46.96 and 55.37 and 56.98 and 48.52 and 58.61 and 60 and 58.12
MCAO/R mice [7]; 11d after MCAO/R, VK 300 µg/kg, 60 s maximum
  Morris water maze latency to the platform (sheet block Fig.2h): 51 and 55.8
MCAO/R mice [7]; 12d after MCAO/R, VK 150 µg/kg
  Morris water maze latency to the platform (sheet block Fig.2h): 35.17 and 36.55 and 38.29 and 31.14 and 35.03 and 46.91 and 50.97
MCAO/R mice [7]; 12d after MCAO/R, VK 300 µg/kg
  Morris water maze latency to the platform (sheet block Fig.2h): 43.25 and 49.34 and 39.87 and 44.13 and 49.62 and 33.65
MCAO/R mice [7]; 13d after MCAO/R, VK 150 µg/kg
  Morris water maze latency to the platform (sheet block Fig.2h): 12.69 and 22.64 and 25.57 and 20.24 and 33.84 and 30.46 and 33.85
MCAO/R mice [7]; 13d after MCAO/R, VK 300 µg/kg
  Morris water maze latency to the platform (sheet block Fig.2h): 24.06 and 46.35 and 29.58 and 38.44 and 42.39 and 44
MCAO/R mice [7]; 14d after MCAO/R, VK 150 µg/kg
  Morris water maze latency to the platform (sheet block Fig.2h): 8.5 and 15.36 and 20.6 and 19.38 and 15.89 and 10.11 and 29.75
MCAO/R mice [7]; 14d after MCAO/R, VK 300 µg/kg
  Morris water maze latency to the platform (sheet block Fig.2h): 18.28 and 40.48 and 16.15 and 23.59 and 39.68 and 25.37
MCAO/R mice [7]; day 11–14 after MCAO/R
  spatial learning, escape latency: decreased escape latency
MCAO/R mice [7]; day 15 after MCAO/R
  spatial memory, probe trial vs vehicle: more crossovers and spent more time in the platform quadrant
[8]
  LD content in brain vs vehicle: lower LD content
[8]; VK-treated groups
  ATP activity in brain vs vehicle: increased ATP activity
